The values that follow come from EP0558321A1 (priority 1992, dated 1993).

The test system of series [1] is influenza virus (A/PR/8 strain). In words: microbe, parasite or virus in culture. It is filed as cell-based. As to conditions: unidentified influenza virus, PR/8, MDCK, read-out: Antiviral Activitiy (ΔTCID₅₀)(log₁₀).
A further series concerns HSV-1 (Miyama strain). In words: microbe, parasite or virus in culture. It is filed as cell-based, herpes simplex virus type 1.
A further series concerns influenza B virus. As to conditions: prior art statement; cited from earlier work.
The next series concerns influenza A virus. To be noted: prior art statement; cited from earlier work.
The subject of another series is influenza virus. As to conditions: from "Acta Virol.", 28, pp. 501-507 (1984); cited from earlier work.
Setting [2] is: Human alphaherpesvirus 1, GMK, read-out: Antiviral Activity (ΔTCID₅₀)(log₁₀), compound concentration 10 µg/ml, GMK cells.
The mark [3] stands for this setting: Human alphaherpesvirus 1, GMK, read-out: Antiviral Activity (ΔTCID₅₀)(log₁₀), compound concentration 5 µg/ml, GMK cells.
Setting [4] is: Human alphaherpesvirus 1, GMK, read-out: Antiviral Activity (ΔTCID₅₀)(log₁₀), compound concentration 20 µg/ml, GMK cells.
Setting [5] is: compound concentration 10 µg/ml, GMK cells.
[6] abbreviates: compound concentration 50 µg/ml, GMK cells.
The mark [7] stands for this setting: Human alphaherpesvirus 1, GMK, read-out: Antiviral Activity (ΔTCID₅₀)(log₁₀).

Counter-ions that a name gives are not always drawn. Like-named read-outs stand apart in the source and are kept apart here.

In the case of `CC1(c2ccc(C(O)(C3C4CC5CC(C4)CC3C5)C34CCCN3CCC4)cc2)OCCS1` (centres unmarked) [Prep. Ex. 30, 1-(1-azabicyclo[3.3.0]octan-5-yl)-1-(4-(2-methyl-1,3-thioxolane-2-yl)phenyl)-1-(2-tricyclo[3.3.1.1^3.7]decyl)methan-1-ol], the cytotoxicity is reported as >3.17 (+) in the series on GMK cells and >3.00 (+) in the series with MDCK cells. In series [1], the log reduction at 5 µg/mL was > 3. The figures for the log reduction at 10 µg/mL (in series [1]; in the series with HSV-1 (Miyama strain) (setting [2])) were > 3 and > 3.17, respectively.
As to `OC(c1ccc2ccccc2c1)(C1C2CC3CC(C2)CC1C3)C12CCCN1CCC2` (centres unmarked) [Prep. Ex. 9, 1-(1-azabicyclo[3.3.0]octan-5-yl)-1-(2-naphthyl)-1-(2-tricyclo [3.3.1.1^3.7]decyl)methan-1-ol], in the series with GMK cells, the cytotoxicity is on record as 2.17 (-). Further, in the series on HSV-1 (Miyama strain) (setting [3]), the log reduction at 5 µg/mL worked out at 1.17. In addition, the log reduction at 10 µg/mL with HSV-1 (Miyama strain) (setting [2]) came to 2.17.
Regarding `CC(N)C12CC3CC(CC(C3)C1)C2` (centres unmarked) [remantadine, Remantadine], the “efficacy against influenza B virus” value in the series on influenza B virus is reported as “not against influenza B virus”. Besides, the “efficacy against influenza A virus” value in the series with influenza A virus was “efficacious against influenza A virus”.
Regarding `COc1cccc(C(O)(C2C3CC4CC(C3)CC2C4)C23CCCN2CCC3)c1` (centres unmarked) [Prep. Ex. 19, 1-(1-azabicyclo[3.3.0]octan-5-yl)-1-(3-methoxyphenyl)-1-(2-tricyclo[3.3.1.1³^.7]decyl)methan-1-ol hydrochloride], in series [1], the log reduction at 5 µg/mL was found to be 0, the log reduction at 10 µg/mL was 0.17 and the log reduction at 20 µg/mL is > 3.17. In the series with HSV-1 (Miyama strain) (setting [2]), the log reduction at 10 µg/mL stood at 0. Moreover, the log reduction at 20 µg/mL in the series with HSV-1 (Miyama strain) (setting [4]) was > 2.
With `Cc1ccc(C(O)(C2C3CC4CC(C3)CC2C4)C23CCCN2CCC3)cc1` (centres unmarked) [Prep. Ex. 27, 1-(1-azabicyclo[3.3.0]octan-5-yl)-1-(4-methylphenyl)-1-(2-tricyclo-[3.3.1.1^3.7]decyl)methan-1-ol hydrochloride], the log reduction at 5 µg/mL in series [1] stood at 0.17. Moreover, the log reduction at 10 µg/mL in series [1] amounted to 0.17; with HSV-1 (Miyama strain) (setting [2]) it was 2.17. In addition, the log reduction at 20 µg/mL was 2.17 in series [1] and > 3 in the series with HSV-1 (Miyama strain) (setting [4]).
As to `OC(c1ccccc1)(C1C2CC3C(C2)C31)C12CCCN1CCC2` (stereo not drawn) [Prep. Ex. 3, (1R*)-1-(1-azabicyclo[3.3.0]octan-5-yl)1-phenyl-1-[(3'S*)-3-tricyclo[2.2.1.0]heptyl]methan-1-ol hydrochloride], the “Antiviral Activity (ΔTCID₅₀)(log₁₀)” value in the series with HSV-1 (Miyama strain) (setting [5]) is 0.00 (-) log₁₀; in the series on HSV-1 (Miyama strain) (setting [6]) it was >3.00 (-) log₁₀.
As to `OC(CCN1CCCCC1)(c1ccccc1)C1C2CC3C(C2)C31` (stereo not drawn) [Prep. Ex. 1, (1R*)-1-phenyl-3-piperidino-1-((3'S*)-3-tricyclo[2.2.1.0]heptyl)propan-1-ol hydrochloride], in series [1], the log reduction at 10 µg/mL came to 0.44 and the log reduction at 20 µg/mL was > 3.17. Besides, the log reduction at 10 µg/mL in the series with HSV-1 (Miyama strain) (setting [2]) is 0.83. Also, the log reduction at 50 µg/mL in the series on HSV-1 (Miyama strain) (Human alphaherpesvirus 1, GMK, read-out: Antiviral Activity (ΔTCID₅₀)(log₁₀), compound concentration 50 µg/ml, GMK cells) is > 3.
As to `OC(c1ccc(F)cc1)(C1C2CC3CC(C2)CC1C3)C12CCCN1CCC2` (centres unmarked) [Prep. Ex. 10, 1-(1-azabicyclo[3.3.0]octan-5-yl)-1-(4-fluoropheyl)-1-(2-tricyclo [3.3.1.1^3.7]decyl)methan-1-ol], in series [1], the log reduction at 5 µg/mL worked out at 2. For the same molecule, the log reduction at 10 µg/mL in series [1] is > 3.17; in the series on HSV-1 (Miyama strain) (setting [2]) it was 1.17. In addition, in the series with HSV-1 (Miyama strain) (compound concentration 5 µg/ml, GMK cells), the “Antiviral Activity (ΔTCID₅₀)(log₁₀)” value was 0.83 (-) log₁₀.
On to `Cc1ccccc1C(O)(C1C2CC3CC(C2)CC1C3)C12CCCN1CCC2` (centres unmarked) [Prep. Ex. 25, 1-(1-azabicyclo[3.3.0]octan-5-yl)-1-(2-methylphenyl)-1-(2-tricyclo[3.3.1.1^3.7]decyl)methan-1-ol hydrochloride], for which the cytotoxicity in the series on GMK cells was >3.00 (+). The log reduction at 10 µg/mL in the series on HSV-1 (Miyama strain) (setting [2]) was > 3.
As for “(1R*)-1-phenyl-3-piperidino-1-((3'R*)-3-tricyclo[2.2.1.0] heptyl)propan-1-ol hydrochloride [Prep. Ex. 2]”, the “Antiviral Activity (ΔTCID₅₀)(log₁₀)” value is on record as 0.17 (-) log₁₀ in the series on HSV-1 (Miyama strain) (setting [5]) and >3.00 (+) log₁₀ in the series with HSV-1 (Miyama strain) (setting [6]).
Turning to `OC(c1ccccc1)(C1C2CC3CC(C2)CC1C3)C12CCCN1CCC2` (centres unmarked) [Prep. Ex. 8, 1-(1-azabicyclo[3.3.0]octan-5-yl)-1-phenyl-1-(2-tricyclo[3.3. 1.1^3.7]decyl)methan-1-ol], in series [1], the log reduction at 10 µg/mL was 0.67 and the log reduction at 20 µg/mL was > 3.5. Also, in the series with HSV-1 (Miyama strain) (setting [7]), the log reduction at 5 µg/mL came out at 0.5, the log reduction at 10 µg/mL came to 0.66 and the log reduction at 20 µg/mL is 2.66.
As for `COc1ccc(C(O)(C2C3CC4CC(C3)CC2C4)C23CCCN2CCC3)cc1` (centres unmarked) [Prep. Ex. 15, 1-(1-azabicyclo[3.3.0]octan-5-yl)-1-(4-methoxyphenyl)-1-(2-tricyclo[3.3.1.1^3.7]decyl)methan-1-ol hydrochloride], the cytotoxicity with GMK cells is recorded as 0.67 (-). In series [1], the log reduction at 5 µg/mL turned out to be 0, the log reduction at 10 µg/mL was > 2.17 and the log reduction at 20 µg/mL was > 3.5. For the same molecule, in the series with HSV-1 (Miyama strain) (setting [2]), the log reduction at 10 µg/mL amounted to 0.67.
`OC(CCN1CCCCC1)(c1ccccc1)C1CC2C=CC1C2` (centres unmarked) [Akineton]: the “anti influenza virus action” value with influenza virus is given as “confirmed to have an anti influenza virus action”.
As to `COc1ccccc1C(O)(C1C2CC3CC(C2)CC1C3)C12CCCN1CCC2` (centres unmarked) [Prep. Ex. 23, 1-(1-azabicyclo[3.3.0]octan-5-yl)-1-(2-methoxyphenyl)-1-(2-tricyclo[3.3.1.1^3.7]decyl)methan-1-ol hydrochloride], the cytotoxicity in the series on GMK cells is 0.17 (+). Also, in the series with HSV-1 (Miyama strain) (setting [2]), the log reduction at 10 µg/mL is 0.17.
With “(1R*)-1-(1-azabicyclo[3.3.0]octan-5-yl)-1-phenyl-1-((3'R*)-3-tricyclo[2.2.1.0]heptyl)methanol hydrochloride [Prep. Ex. 4]”, the “Antiviral Activity (ΔTCID₅₀)(log₁₀)” value in the series with HSV-1 (Miyama strain) (setting [5]) was 0.66 (-) log₁₀; with HSV-1 (Miyama strain) (setting [6]) it was 1.33 (±) log₁₀.
As for `OC(c1cccc(C(F)(F)F)c1)(C1C2CC3CC(C2)CC1C3)C12CCCN1CCC2` (centres unmarked) [Prep. Ex. 21, 1-(1-azabicyclo[3.3.0]octan-5-yl)-1-(3-trifluoromethylphenyl)-1-(2-tricyclo[3.3.1.1^3.7]decyl)methan-1-ol hydrochloride], the values for the log reduction at 5 µg/mL (in series [1]; in the series with HSV-1 (Miyama strain) (setting [3])) were 0 and 0.5, respectively. Further, the results for the log reduction at 10 µg/mL (in series [1]; with HSV-1 (Miyama strain) (setting [2])) were 0.27 and 0.33, respectively.
For `OC(c1ccc(C(F)(F)F)cc1)(C1C2CC3CC(C2)CC1C3)C12CCCN1CCC2` (centres unmarked) [Prep. Ex. 17, 1-(1-azabicyclo[3.3.0]octan-5-yl)-1-(4-trifluoromethylphenyl)-1-(2-tricyclo[3.3.1.1³^.7]decyl)methan-1-ol hydrochloride], the cytotoxicity in the series on GMK cells is given as 0.33 (-). Further, in series [1], the log reduction at 5 µg/mL was 0.33, the log reduction at 10 µg/mL was found to be 0.33 and the log reduction at 20 µg/mL amounted to 0.33. Besides, the log reduction at 10 µg/mL in the series on HSV-1 (Miyama strain) (setting [2]) turned out to be 0.33. Further, the log reduction at 20 µg/mL in the series with HSV-1 (Miyama strain) (setting [4]) amounted to 0.33.
Regarding `NC12CC3CC(CC(C3)C1)C2` [Amantadine], the “efficacy against influenza B virus” value in the series with influenza B virus is “not against influenza B virus”. Also, in the series on influenza A virus, the “efficacy against influenza A virus” value was “efficacious against influenza A virus”.
For `CC(=O)c1ccc(C(O)(C2C3CC4CC(C3)CC2C4)C23CCCN2CCC3)cc1` (centres unmarked) [Prep. Ex. 32, 1-(4-acetylphenyl)-1-(1-azabicyclo[3.3.0]octan-5-yl)-1-(2-tricyclo[3.3.1.1³^.7]decyl)methan-1-ol hydrochloride], the cytotoxicity in the series with GMK cells is 0.33 (+). In addition, in series [1], the log reduction at 5 µg/mL amounted to 0.5, the log reduction at 10 µg/mL was 1 and the log reduction at 20 µg/mL is 1.16. Also, the log reduction at 10 µg/mL with HSV-1 (Miyama strain) (setting [2]) was determined as 0.33.
With `OC(c1ccc(-c2ccccc2)cc1)(C1C2CC3CC(C2)CC1C3)C12CCCN1CCC2` (centres unmarked) [Prep. Ex. 29, 1-(1-azabicyclo[3.3.0]octan-5-yl)-1-(4-biphenyl)-1-(2-tricyclo[3.3.1.1^3.7]decyl)methan-1-ol hydrochloride], the cytotoxicity is recorded as >3.17 (+) with GMK cells and >3.00 (+) with MDCK cells. In series [1], the log reduction at 5 µg/mL was > 3. For the same molecule, the figures for the log reduction at 10 µg/mL (in series [1]; with HSV-1 (Miyama strain) (setting [2])) were > 3 and > 3.17, respectively.
As to `OC(c1ccc(F)cc1)(C1C2CC3CC(C2)CC1C3)C12CCCN1CCC2` (centres unmarked) [Prep. Ex. 11, 1-(1-azabicyclo[3.3.0]octan-5-yl)-1-(4-fluoropheyl)-1-(2-tricyclo [3.3.1.1^3.7]decyl)methan-1-ol hydrochloride], in the series with HSV-1 (Miyama strain) (compound concentration 5 µg/ml, GMK cells, hydrochloride), the “Antiviral Activity (ΔTCID₅₀)(log₁₀)” value was 0.00 (-) log₁₀.
As for `CC(C(O)(c1ccccc1)C1C2CC3C(C2)C31)C12CCCN1CCC2` (centres unmarked) [Prep. Ex. 6, 2-(1-azabicyclo[3.3.0]octan-5-yl)-1-phenyl-1-(3-tricyclo [2.2.1.0]heptyl)propan-1-ol], the “Antiviral Activity (ΔTCID₅₀)(log₁₀)” value in the series with HSV-1 (Miyama strain) (setting [5]) was 1.00 (±) log₁₀.
For `CN(C)c1ccc(C(O)(C2C3CC4CC(C3)CC2C4)C23CCCN2CCC3)cc1` (centres unmarked) [Prep. Ex. 13, 1-(1-azabicyclo[3.3.0]octan-5-yl)-1-(4-dimethylaminophenyl)-1-(2-tricyclo[3.3.1.1^3.7]decyl)methan-1-ol dihydrochloride], the log reduction at 10 µg/mL worked out at 0.17 in series [1] and 0.77 in the series with HSV-1 (Miyama strain) (setting [2]). The log reduction at 20 µg/mL with HSV-1 (Miyama strain) (setting [4]) worked out at 3. In addition, the cytotoxicity in the series with MDCK cells is listed as 0.17 (+).
